Measurements: patent US9169482B2, “Method for synthesizing cDNA” (TAKARA BIO INC., priority 2010, dated 2015)

Molecular target: T1, DNaseI (Bos taurus, UniProt P00639)
T1 construct: purchased TAKARA BIO INC
Assay: Degradation of mouse genomic DNA with DNaseI in reaction solutions of Table 3, agarose gel electrophoresis (Example 2)
Assay type: biochemical
Settings: 5 U DNaseI, 200 ng mouse genomic DNA
Experimental: In order to construct a reaction composition completely inhibiting endoDNase activity, six kinds of 20 μL-reaction solutions (Reaction Solutions 1 to 6) containing 5 U DNaseI (TAKARA BIO INC.), 200 ng mouse genomic DNA, and the components as listed in Table 3 were prepared. In addition, six kinds of 20 μL-reaction solutions having the same compositions except that DNaseI was not contained were prepared. These reaction solutions were incubated at 37° C. for 15 minutes, and thereafter incubated at 85° C. for 5 seconds. Next, each of the reaction solutions was subjected to agarose gel electrophoresis, thereby confirming degradation of mouse genomic DNA with DNaseI.
It could be confirmed from this matter that DNaseI activity was inhibited in Reaction Solutions 3 and 4. […] It is shown from this matter that adjustment of the Mg concentration can further inhibit DNaseI activity other than the addition of KCl and (NH4)2SO4 or an increase in the DTT concentration.

T1 sequence (P00639 23-282): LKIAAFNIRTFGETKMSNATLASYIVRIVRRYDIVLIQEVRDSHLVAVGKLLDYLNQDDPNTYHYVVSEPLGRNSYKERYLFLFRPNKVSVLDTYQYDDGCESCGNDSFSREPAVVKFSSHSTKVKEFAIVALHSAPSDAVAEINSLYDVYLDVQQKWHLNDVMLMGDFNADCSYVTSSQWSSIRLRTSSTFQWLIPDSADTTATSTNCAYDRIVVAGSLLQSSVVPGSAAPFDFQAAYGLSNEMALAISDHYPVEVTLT

N.N.O=S(=O)(O)O [(NH4)2SO4, ammonium sulfate]
Inhibition of DNaseI activity: inhibited DNaseI activity in a concentration-dependent manner
